According to PubChem BioAssay AID1963986 (Molecular Pharmacology Branch, DTP, NCI, 2024):

System: 171881-019-R-J1-PDC tumor spheroid viability
Assay: Anticancer human tumor 171881-019-R-J1-PDC patient-derived invasive breast carcinoma cell line growth inhibition [PI3K]
Settings: spheroids with HUVEC and MSC; for IC50: curve of first compound; for viability, T/C: stronger effect = lower value
Procedure, shortened: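 Tumor cells grown as multi-cell spheroids with HUVEC endothelial cells and MSC fibroblast-like stroma were treated with targeted agents combined with inavolisib, alpelisib, duvelisib or copanlisib. Doses fell in half-log steps from near clinical Cmax, else from 10 microM. Viability was measured.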
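Further: spheroids exposed to compound for 7 days before viability read.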
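Wherever viability, T/C is given: 100% = DMSO vehicle-treated spheroids.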

**Q.** How did the IC50 (second compound 0.0316 µM) turn out when `CC(Cn1ccc(-c2ccc(C#N)c(Cl)c2)n1)NC(=O)c1cc(C(C)O)[nH]n1` (centres undefined) + CC(Nc1ncnc2nc[nH]c12)c1cc2cccc(Cl)c2c(=O)n1-c1ccccc1 was run?
**A.** > 10000 nM

**Q.** And the IC50 (second compound 0.1 µM)?
**A.** > 10000 nM

**Q.** And the IC50 (second compound 0.316 µM)?
**A.** > 10000 nM

**Q.** And the IC50 (second compound 1 µM)?
**A.** > 10000 nM

**Q.** What about the IC50 (second compound 3.16 µM) of the same compound?
**A.** > 10000 nM

**Q.** What about the IC50 (second compound 10 µM) of the same compound?
**A.** 5120 nM

**Q.** What about the viability, T/C (second compound 0.0316 µM, first compound 0.0316 µM) of the same compound?
**A.** 85.5%

**Q.** And the viability, T/C (second compound 0.0316 µM, first compound 0.1 µM)?
**A.** 85%

**Q.** And the viability, T/C (second compound 0.0316 µM, first compound 0.316 µM)?
**A.** 93%

**Q.** And the viability, T/C (second compound 0.0316 µM, first compound 1 µM)?
**A.** 70.3%

**Q.** What about the viability, T/C (second compound 0.0316 µM, first compound 3.16 µM) of the same compound?
**A.** 68.9%

**Q.** What about the viability, T/C (second compound 0.0316 µM, first compound 10 µM) of the same compound?
**A.** 59.1%

**Q.** What about the viability, T/C (second compound 0.1 µM, first compound 0.0316 µM) of the same compound?
**A.** 80.6%

**Q.** What about the viability, T/C (second compound 0.1 µM, first compound 0.1 µM) of the same compound?
**A.** 105%

**Q.** And the viability, T/C (second compound 0.1 µM, first compound 0.316 µM)?
**A.** 87.8%

**Q.** And the viability, T/C (second compound 0.1 µM, first compound 1 µM)?
**A.** 77.6%

**Q.** What about the viability, T/C (second compound 0.1 µM, first compound 3.16 µM) of the same compound?
**A.** 81%

**Q.** And the viability, T/C (second compound 0.1 µM, first compound 10 µM)?
**A.** 62.1%

**Q.** And the viability, T/C (second compound 0.316 µM, first compound 0.0316 µM)?
**A.** 96.3%

**Q.** What about the viability, T/C (second compound 0.316 µM, first compound 0.1 µM) of the same compound?
**A.** 94.9%

**Q.** What about the viability, T/C (second compound 0.316 µM, first compound 0.316 µM) of the same compound?
**A.** 88.5%

**Q.** And the viability, T/C (second compound 0.316 µM, first compound 1 µM)?
**A.** 91.2%

**Q.** What about the viability, T/C (second compound 0.316 µM, first compound 3.16 µM) of the same compound?
**A.** 82%

**Q.** What about the viability, T/C (second compound 0.316 µM, first compound 10 µM) of the same compound?
**A.** 66.7%

**Q.** What about the viability, T/C (second compound 1 µM, first compound 0.0316 µM) of the same compound?
**A.** 104%

**Q.** And the viability, T/C (second compound 1 µM, first compound 0.1 µM)?
**A.** 93.8%

**Q.** What about the viability, T/C (second compound 1 µM, first compound 0.316 µM) of the same compound?
**A.** 87.8%

**Q.** And the viability, T/C (second compound 1 µM, first compound 1 µM)?
**A.** 94.9%

**Q.** And the viability, T/C (second compound 1 µM, first compound 3.16 µM)?
**A.** 92%

**Q.** What about the viability, T/C (second compound 1 µM, first compound 10 µM) of the same compound?
**A.** 64.7%

**Q.** And the viability, T/C (second compound 3.16 µM, first compound 0.0316 µM)?
**A.** 86.7%

**Q.** What about the viability, T/C (second compound 3.16 µM, first compound 0.1 µM) of the same compound?
**A.** 93.4%

**Q.** And the viability, T/C (second compound 3.16 µM, first compound 0.316 µM)?
**A.** 83.6%

**Q.** What about the viability, T/C (second compound 3.16 µM, first compound 1 µM) of the same compound?
**A.** 82.8%

**Q.** And the viability, T/C (second compound 3.16 µM, first compound 3.16 µM)?
**A.** 85%

**Q.** What about the viability, T/C (second compound 3.16 µM, first compound 10 µM) of the same compound?
**A.** 58.9%

**Q.** And the viability, T/C (second compound 10 µM, first compound 0.0316 µM)?
**A.** 60.3%

**Q.** And the viability, T/C (second compound 10 µM, first compound 0.1 µM)?
**A.** 59.5%

**Q.** And the viability, T/C (second compound 10 µM, first compound 0.316 µM)?
**A.** 55.9%

**Q.** And the viability, T/C (second compound 10 µM, first compound 1 µM)?
**A.** 56.2%

**Q.** And the viability, T/C (second compound 10 µM, first compound 3.16 µM)?
**A.** 57.4%

**Q.** What about the viability, T/C (second compound 10 µM, first compound 10 µM) of the same compound?
**A.** 40.1%

**Q.** `Cn1cnc2c(F)c(Nc3ccc(Br)cc3Cl)c(C(=O)NOCCO)cc21` + CC(Nc1ccc2c(c1)OCCn1cc(N3C(=O)OCC3C(F)F)nc1-2)C(N)=O was tested. Which IC50 (second compound 0.00316 µM) did it give?
**A.** 422 nM

**Q.** And the IC50 (second compound 0.01 µM)?
**A.** 71 nM

**Q.** What about the IC50 (second compound 0.0316 µM) of the same compound?
**A.** < 9.49 nM

**Q.** And the IC50 (second compound 0.1 µM)?
**A.** < 9.49 nM

**Q.** What about the IC50 (second compound 0.316 µM) of the same compound?
**A.** < 9.49 nM

**Q.** What about the IC50 (second compound 1 µM) of the same compound?
**A.** < 9.49 nM

**Q.** And the viability, T/C (second compound 0.00316 µM, first compound 0.00949 µM)?
**A.** 63.8%

**Q.** What about the viability, T/C (second compound 0.00316 µM, first compound 0.03 µM) of the same compound?
**A.** 71.5%

**Q.** And the viability, T/C (second compound 0.00316 µM, first compound 0.0949 µM)?
**A.** 64.9%

**Q.** What about the viability, T/C (second compound 0.00316 µM, first compound 0.3 µM) of the same compound?
**A.** 56.4%

**Q.** And the viability, T/C (second compound 0.00316 µM, first compound 0.949 µM)?
**A.** 34.3%

**Q.** What about the viability, T/C (second compound 0.00316 µM, first compound 3 µM) of the same compound?
**A.** 15.4%

**Q.** What about the viability, T/C (second compound 0.01 µM, first compound 0.00949 µM) of the same compound?
**A.** 60.4%

**Q.** And the viability, T/C (second compound 0.01 µM, first compound 0.03 µM)?
**A.** 54.8%

**Q.** And the viability, T/C (second compound 0.01 µM, first compound 0.0949 µM)?
**A.** 46.9%

**Q.** And the viability, T/C (second compound 0.01 µM, first compound 0.3 µM)?
**A.** 40.9%

**Q.** And the viability, T/C (second compound 0.01 µM, first compound 0.949 µM)?
**A.** 23.9%

**Q.** And the viability, T/C (second compound 0.01 µM, first compound 3 µM)?
**A.** 10.1%

**Q.** And the viability, T/C (second compound 0.0316 µM, first compound 0.00949 µM)?
**A.** 44.8%

**Q.** And the viability, T/C (second compound 0.0316 µM, first compound 0.03 µM)?
**A.** 38.7%

**Q.** What about the viability, T/C (second compound 0.0316 µM, first compound 0.0949 µM) of the same compound?
**A.** 33.9%

**Q.** And the viability, T/C (second compound 0.0316 µM, first compound 0.3 µM)?
**A.** 26.8%

**Q.** And the viability, T/C (second compound 0.0316 µM, first compound 0.949 µM)?
**A.** 16.4%

**Q.** And the viability, T/C (second compound 0.0316 µM, first compound 3 µM)?
**A.** 6.34%

**Q.** And the viability, T/C (second compound 0.1 µM, first compound 0.00949 µM)?
**A.** 30.6%

**Q.** What about the viability, T/C (second compound 0.1 µM, first compound 0.03 µM) of the same compound?
**A.** 27.1%

**Q.** What about the viability, T/C (second compound 0.1 µM, first compound 0.0949 µM) of the same compound?
**A.** 24.2%

**Q.** And the viability, T/C (second compound 0.1 µM, first compound 0.3 µM)?
**A.** 17.7%

**Q.** And the viability, T/C (second compound 0.1 µM, first compound 0.949 µM)?
**A.** 9.75%

**Q.** And the viability, T/C (second compound 0.1 µM, first compound 3 µM)?
**A.** 2.93%

**Q.** And the viability, T/C (second compound 0.316 µM, first compound 0.00949 µM)?
**A.** 20.9%

**Q.** And the viability, T/C (second compound 0.316 µM, first compound 0.03 µM)?
**A.** 18.9%

**Q.** And the viability, T/C (second compound 0.316 µM, first compound 0.0949 µM)?
**A.** 15.3%

**Q.** What about the viability, T/C (second compound 0.316 µM, first compound 0.3 µM) of the same compound?
**A.** 11.7%

**Q.** And the viability, T/C (second compound 0.316 µM, first compound 0.949 µM)?
**A.** 4.97%

**Q.** And the viability, T/C (second compound 0.316 µM, first compound 3 µM)?
**A.** 1.75%

**Q.** And the viability, T/C (second compound 1 µM, first compound 0.00949 µM)?
**A.** 16.9%

**Q.** And the viability, T/C (second compound 1 µM, first compound 0.03 µM)?
**A.** 13.7%

**Q.** What about the viability, T/C (second compound 1 µM, first compound 0.0949 µM) of the same compound?
**A.** 12.7%

**Q.** And the viability, T/C (second compound 1 µM, first compound 0.3 µM)?
**A.** 8.33%

**Q.** And the viability, T/C (second compound 1 µM, first compound 0.949 µM)?
**A.** 2.91%

**Q.** And the viability, T/C (second compound 1 µM, first compound 3 µM)?
**A.** 1.25%
